# Results taken from patent US20170304288A1, “Formulations of Methionine Aminopeptidase Inhibitors for Treating Infectious Diseases” (Texas Southern University, priority 2013, published 2017).
# Like-named read-outs stand apart in the source and are kept apart here.
# Assays:
# [1] = tested on: E. faecalis OG1RF; assay: Bacterial viability (CFU) in infected nematodes after treatment; type: in vivo, Enterococcus faecalis; settings: 4×10^−11 μg/mL, after three days of treatment
# Procedure: Young Adult nematodes sequentially preinfected with E. faecalis for 5 h. The nematodes were washed three times with sterile […] and collected by centrifugation between each wash and then transferred into tubes. […] The nematodes were washed twice in 25 mM Tetramisole and transferred to 6 well plates containing 20% BHI and the inhibitors to recover for 48 h and 72 h. After recovery time elapsed, nematodes were then transferred into an eppendorf tube containing 200 μl of M9 and ground using motorized pestle for 1 min and tube was briefly vortexed.
# [2] = Stability in plasma and urine samples for LC-MS/MS analysis; type: in vitro ADME, rat
# Procedure: The short-term (bench-top) stability of compound 5 in plasma and urine samples was evaluated by analyzing three sets each of freshly prepared plasma and urine samples containing compound 5 and placed them on the bench-top for 2, 4, and 6 h, respectively or at −80° C. for 14 days. All the samples were compared with freshly prepared samples of the same concentration.
# The stability of compound 5 in processed samples (on-instrument or auto-sampler stability) was also evaluated by comparing freshly prepared plasma and urine QC samples to similar samples placed on the auto-sampler for 2, 4, and 6 h respectively. One set of the plasma and urine QC samples was extracted with acetonitrile containing IS, and the other set with pure acetonitrile without IS.
# [3] = Solubility in various solvents, shaker method; type: physicochemical; settings: for solubility at 72 h: thermodynamic from solid, read-out: Mean Solubility ± SD
# Procedure: Assessment of the solubility of compound 5 in various solvents is important in developing suitable formulations for preclinical and clinical studies. The solubility of compound 5 in water, ethanol, poly ethylene glycol 400, propylene glycol monocapryrate type I (PGMC), propylene glycol monocapryrate type II (CAPYROL 90), dimethyl sulfoxide (DMSO), dimethyl acetamide (DMA), TWEEN 80, TWEEN 20, paraffin oil, soybean oil, and olive oil were determined by the shaker method. Briefly, excess amount of compound 5 was added to each of the selected solvents in a scintillation vial and placed on a reciprocating shaker to shake at room temperature for 72 h. The samples were centrifuged at 14,000 rpm for 10 min and subsequently filtered through a 0.22 μm filtration unit; the resulting filtrate was analyzed by HPLC-UV to determine the amount of compound 5 dissolved in the solvents. The experiment was conducted in triplicate.
# [4] = Octanol-water partition co-efficient, shaker method; type: physicochemical; settings: read-out: experimental M log P
# Procedure: The octanol—water partition co-efficient (log P) of compound 5, which measures its hydrophilicity (“water-loving” property) or hydrophobicity (“water-repelling” property), was evaluated using the shaker method. […] This indicate potential water solubility challenges especially for oral administration.
# [5] = tested on: plasma protein; assay: Plasma protein binding in rat plasma
# [6] = tested on: E. faecalis V583; assay: Liquid-based C. elegans infection model, survival
# [7] = tested on: Pseudomonas aeruginosa (PA14); assay: Screening against P. aeruginosa in LB and SK media
# [8] = tested on: E. faecalis OG1RF; assay: Assay of E. faecalis inhibition (MIC) in BHI culture; settings: Enterococcus faecalis, read-out: Minimum Inhibitory Concentration MIC30 OG1RF
# [9] = tested on: E. faecalis V583; assay: as above
structure (smiles),measurement,setting,value
"Oc1c(Br)cc(Cl)c2cccnc12 [Compound 5, 7-bromo-5-chloroquinolin-8-ol]",drop in CFU,[1],50 fold
same,Processed sample or Auto-sampler stability No IS,"[2]; Plasma, 2 hr",97.8 ± 1.11
same,Processed sample or Auto-sampler stability With IS,"[2]; Plasma, 2 hr",95.9 ± 1.87
same,Short-term Stability,"[2]; Plasma, 2 hr bench-top",91.6 ± 4.06
same,Processed sample or Auto-sampler stability No IS,"[2]; Plasma, 4 hr",97.1 ± 5.42
same,Processed sample or Auto-sampler stability With IS,"[2]; Plasma, 4 hr",94.7 ± 4.20
same,Short-term Stability,"[2]; Plasma, 4 hr bench-top",95.1 ± 3.24
same,Processed sample or Auto-sampler stability No IS,"[2]; Plasma, 6 hr",95.5 ± 6.69
same,Processed sample or Auto-sampler stability With IS,"[2]; Plasma, 6 hr",97.3 ± 5.55
same,Short-term Stability,"[2]; Plasma, 6 hr bench-top",93.7 ± 1.17
same,Short-term Stability,"[2]; Plasma, 14 days at −80° C.",91.3 ± 5.45
same,Processed sample or Auto-sampler stability No IS,"[2]; Urine, 2 hr",92.3 ± 1.32
same,Processed sample or Auto-sampler stability With IS,"[2]; Urine, 2 hr",102.1 ± 1.35
same,Short-term Stability,"[2]; Urine, 2 hr bench-top",94.4 ± 1.83
same,Processed sample or Auto-sampler stability No IS,"[2]; Urine, 4 hr",92.8 ± 2.31
same,Processed sample or Auto-sampler stability With IS,"[2]; Urine, 4 hr",99.5 ± 1.89
same,Short-term Stability,"[2]; Urine, 4 hr bench-top",93.2 ± 4.10
same,Processed sample or Auto-sampler stability No IS,"[2]; Urine, 6 hr",94.2 ± 1.59
same,Processed sample or Auto-sampler stability With IS,"[2]; Urine, 6 hr",103.2 ± 2.33
same,Short-term Stability,"[2]; Urine, 6 hr bench-top",95.6 ± 1.44
same,Short-term Stability,"[2]; Urine, 14 days at −80° C.",101.6 ± 4.29
same,Mean Solubility ± SD,[3]; Dimethyl acetamide,>80 mg/mL
same,solubility at 72 h,"[3]; dimethyl acetamide, organic solvent or mixture",> 80 mg/mL
same,solubility at 72 h,[3]; water,0.07 mg/mL
same,logP,[4],3.03 ± 0.04
same,Bound fraction (%) ± SD,[5]; Concentration 5 μg/mL,91.0 ± 0.6%
same,Bound fraction (%) ± SD,[5]; Concentration 25 μg/mL,96.3 ± 1.4%
same,Bound fraction (%) ± SD,[5]; Concentration 50 μg/mL,98.3 ± 0.3%
same,MPC (Minimum Protective Concentration) V583,[6],4e-12 µg/mL
same,MIC,"[7]; PA14, read-out: MIC30 P. aeruginosa",< 2.5 µg/mL
same,inhibition at 2.5 µg/mL,"[7]; PA14, read-out: inhibition of P. aeruginosa",~80%
same,MIC,[8],2.5 to 5 µg/mL
same,Minimum Inhibitory Concentration MIC30 V583,[9],0.25 to 0.50 µg/mL
same,MIC,"[9]; Enterococcus faecalis, V583, read-out: Minimum Inhibitory Concentration MIC30 V583",0.25 to 0.5 µg/mL
